Source: patent US20230312652A1, “NOVEL PEPTIDES AND USES THEREOF” (Aarhus Universitet, priority 2020, published 2023)
Where a SMILES comes first, the peptide text is derived from it.

How the values were obtained:
[1] = test system: BDNF, PGC1a and TFEB in GM04719 fibroblasts; test: BDNF, PGC1a and TFEB levels in HD patient-derived fibroblasts, western blotting; format: cell-based, human; conditions: 1 uM
Description: To validate the therapeutic potential of P1 in Huntington's Disease, we likewise assessed whether P1 could increase the three distinct pathways in fibroblasts derived from a HD patient. The fibroblasts were bought from Coriell Biobank. The patient-derived fibroblasts, named GM04719, was sampled from a person with clinical onset […]. The patient has 44-CAG repeats in their HTT-gene.
To assess target engagement by P1, 30,000-50,000 fibroblasts were seeded per well in a 96-well plate. The following day, the cells were treated with 1 uM of P1 and incubated at 37° C. and 5% CO2 at timepoints between 2-24 hours. Hereafter, the cells were lysed in RIPA lysis buffer containing cOmplete cocktail protease inhibitor. BDNF, PGC1a and TFEB levels were analysed by western blotting normalized to beta-actin.

[2] = test system: SH-SY5Y cells; test: Lysosomal acidification in SH-SY5Y cells, LysoSensor Yellow/Blue DND-160; format: cell-based, human; conditions: 1 uM, 4 hours
Description: SH-SY5Y were seeded in poly-L coated black 96 well plate with clear bottom at a density of ˜3×10^4. The following day, the cells were stimulated with 1 uM P1 (SEQ ID NO: 1) for 4 hours and subsequently incubated with LysoSensor™ Yellow/Blue DND-160 (10 uM) for 20 min. Cells were rinsed with PBS and excitation 340 & 380 and emission 535 was read in a plate-reader. A pH calibration curve buffer was likewise measured. Calculation of the fluorescence intensity ratio of excitation (340/380) results in an average whole-cell intraorganellar pH reflective of all LysoSensor™ Yellow/Blue DND-160-labeled organelles combined. Using the generated linear trendline from the standard curve for pH and 340/380 intensity ratio, calculate the intraorganellar pH of samples.

[3] = target: T1, hERG potassium channels (Homo sapiens, UniProt Q12809); test: hERG inhibition, manual patch-clamp in CHO cell line; format: cell-based; conditions: 0.1-30 uM, room temperature
T1 construct: expressed in transfected cells
T1 sequence (Q12809 whole entry): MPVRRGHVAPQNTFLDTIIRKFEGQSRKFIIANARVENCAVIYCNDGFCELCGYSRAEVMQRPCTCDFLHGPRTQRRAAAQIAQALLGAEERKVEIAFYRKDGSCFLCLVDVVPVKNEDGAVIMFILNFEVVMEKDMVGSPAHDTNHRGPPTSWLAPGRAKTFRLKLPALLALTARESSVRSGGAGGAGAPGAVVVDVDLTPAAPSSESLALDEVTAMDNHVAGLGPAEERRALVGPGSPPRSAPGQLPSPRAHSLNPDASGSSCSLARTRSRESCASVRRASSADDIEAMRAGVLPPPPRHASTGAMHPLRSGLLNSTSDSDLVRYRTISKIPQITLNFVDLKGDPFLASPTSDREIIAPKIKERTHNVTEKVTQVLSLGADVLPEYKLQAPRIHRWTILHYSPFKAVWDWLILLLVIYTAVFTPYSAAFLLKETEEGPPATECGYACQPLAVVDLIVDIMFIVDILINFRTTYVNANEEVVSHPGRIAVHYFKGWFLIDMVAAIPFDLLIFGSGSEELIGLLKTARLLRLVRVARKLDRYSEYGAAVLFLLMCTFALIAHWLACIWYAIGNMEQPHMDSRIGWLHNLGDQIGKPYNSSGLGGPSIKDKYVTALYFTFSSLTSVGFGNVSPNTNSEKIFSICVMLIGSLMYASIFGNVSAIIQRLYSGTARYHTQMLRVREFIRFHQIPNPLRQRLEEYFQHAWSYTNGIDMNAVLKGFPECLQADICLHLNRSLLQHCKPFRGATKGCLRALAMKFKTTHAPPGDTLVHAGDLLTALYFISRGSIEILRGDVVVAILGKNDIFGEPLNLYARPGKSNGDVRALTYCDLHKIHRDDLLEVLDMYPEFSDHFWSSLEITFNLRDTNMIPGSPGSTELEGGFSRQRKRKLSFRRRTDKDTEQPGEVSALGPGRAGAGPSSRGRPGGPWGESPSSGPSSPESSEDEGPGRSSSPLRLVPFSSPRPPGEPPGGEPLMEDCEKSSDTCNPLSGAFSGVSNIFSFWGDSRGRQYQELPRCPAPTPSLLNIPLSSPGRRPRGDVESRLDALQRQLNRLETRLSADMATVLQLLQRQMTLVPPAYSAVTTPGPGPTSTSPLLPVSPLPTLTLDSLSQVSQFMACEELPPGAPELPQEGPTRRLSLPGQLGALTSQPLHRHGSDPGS
Description: P1 (0.1-30 uM) was evaluated in vitro in a concentration-response (relationship of the effect on electric current passing through hERG (human ether-à-go-go-related gene) potassium channels (a surrogate for IKr, the rapidly activating, delayed rectifier cardiac potassium current) stably expressed in a CHO cell line using a manual patch-clamp technique.
The hERG current was recorded at room temperature using whole-cell patch-clamp techniques. Output signals from the patch-clamp amplifier were digitized and low-pass filtered at 2.9 kHz. The recording was controlled with Patchmaster Pro software. The recording chamber with cells seeded was mounted on an inverted microscope stage. A cell in the recording chamber was randomly picked up for testing. The cell was continuously perfused from the perfusion system. A micropipette filled with ICS was used as recording electrode in the manual patch-clamp study. The micropipette was prepared on the day of the patchclamp experiment using glass capillaries (GC150TF-10, Harvard Apparatus Co., UK). From the holding potential of −80 mV, the voltage was increased to +60 mV for 850 ms to open the hERG channels. After that, the voltage was decreased to −50 mV for 1275 ms, causing a “rebound” or tail current, the peak tail current was measured and collected for data analysis. Finally, the voltage was decreased to the holding potential (−80 mV). […]

[4] = Mouse brain homogenate binding; format: in vitro ADME; conditions: 2 μM
Description: Mouse brain homogenate was incubated with 2 μM of P1 or 7-Ethoxycoumarin (positive control of degradation). Enzymatic reactions were stopped at timepoints between 0-240 min and samples analysed by LCMS. For test with protease inhibitors, brain homogenate was pre-incubated for 30 minutes with protease inhibitors prior to incubation with P1. For brain homogenate binding, 2 μM of P1 or propranolol (positive control) were added to mouse brain homogenate and incubated at 37° C. for 30 minutes. To prepare the protein-free samples (F samples) to be used for unbound determination, an aliquot of the pre-incubated matrix containing test compound or control compound was transferred to ultracentrifuge tubes and subjected to ultracentrifugation at 37° C., 35000 rpm for 4 hrs. In parallel, brain homogenate was incubated for 4.5 hrs to determine total levels after incubation.

[5] = test system: HTT in GM04719 fibroblasts; test: Huntingtin levels in Huntington's patient-derived fibroblasts (GM04719), western blotting; format: cell-based, human
Description: GM04719 was seeded at 30,000-50,000 per well in a 96-well. The following day, the cells were treated with 1 uM of P1 and incubated at 37° C. and 5% CO2 at timepoints 0-24 hours. Hereafter, the cells were lysed in RIPA lysis buffer containing cOmplete cocktail protease inhibitor. Total Huntingtin levels were analysed using antibody mab2166 (Sigma-Aldrich) by western blotting and normalized to beta-actin. To determine, whether P1 also clears the healthy allele, we further assessed levels of total HTT in fibroblast derived from a healthy individual (GM01650E), bought from Coriell Biobank.
To get a direct measurement and further validation of the selective degradation of the disease-allele another study was carried out in GM04719 fibroblasts. Here, at 30,000-50,000 were seeded per well in a 96-well. The following 3 days, the cells were treated with 1 uM of P1 every 24 hour and during this incubated at 37° C. and 5% CO2. 24 hours after third treatment, the cells were lysed in RIPA lysis buffer containing cOmplete cocktail protease inhibitor. Mutated Huntingtin levels were measured using antibody, which only detects the disease-allele (MW1 ab). Total Huntingtin levels were likewise analysed using antibody mab2166 and both were normalized to beta-actin.

[6] = Plasma binding, human plasma, ultracentrifugation; format: in vitro ADME
Description: For plasma binding, 2 μM P1 or Warfarin (positive control) were added to mouse or human plasma. After 30 minutes incubation at 37° C., samples where ultracentrifuged for 4 hours to generate protein-free samples for LCMS analysis. In parallel, plasma was incubated for 4.5 h to determine total levels after incubation. Plasma binding was calculated as % Bound=100*(1−F/T4.5), where F is concentration of free ligand and T4.5 is the concentration of total ligand after incubation.

With `CSCC[C@@H]1NC(=O)[C@H](C(C)C)NC(=O)[C@H](CC(=O)O)NC(=O)[C@H](CCC(=O)O)NC(=O)[C@H](CCC(=O)O)NC(=O)[C@H](Cc2c[nH]cn2)NC(=O)[C@H](CCC(=O)O)NC(=O)[C@H](C(C)C)NC(=O)[C@@H]2CCCN2C(=O)[C@H](CCC(=O)O)NC(=O)[C@H]([C@@H](C)O)NC1=O` [Peptide P1, [MTEPVEHEEDV]] (cyclo(MTEPVEHEEDV)) the PGC1a level ([1]; 6 hours of treatment) was “upregulated”, the TFEB level ([1]; 6 hours of treatment) was “upregulated” and the BDNF level ([1]; after 24 hours) was “significantly upregulated”. The 340/380 intensity ratio [2] was “reduction”, the “drop in lysosomal pH” value [2] was about 0.2 pH and the “effect on hERG current” value [3] was “no effect on hERG current”. The brain homogenate binding [4] was “less than 20%”, the “reduction of mutated Huntingtin (disease-allele, MW1 antibody)” value ([5]; 1 uM every 24 hour for 3 days) was 20% and the “total Huntingtin (mab2166)” value ([5]; 1 uM every 24 hour for 3 days) was “not lowering the total amount of Huntingtin significantly”. The “total HTT levels” value ([5]; 1 uM, 8 hours of stimulation) was “reduces total HTT levels”, the plasma binding ([6]; 2 μM) was 20% and the fraction unbound at 30 min, 2 μM ([6]; read-out: compound unbound in plasma) was over 0.75.
